Measurements from patent US12679878B2, “CRF2 receptor agonists and their use in therapy” (SANOFI, priority 2020, dated 2026).
Read-outs that look alike come from different tables or passages of the source. Starred links: 1 amine or outer side, 2 acyl side, 3 side chain; linkers in the order of their positions; H or OH if unused. Non-standard residues stand in square brackets, D forms with d. Residues, ends and D or L forms follow the SMILES beside them. Groups on a side chain read outwards from the residue. *: point of attachment. C18 diacid = O=C(O)CCCCCCCCCCCCCCCCC(=O)*; γGlu = O=C(O)[C@H](CCC(=O)[*:2])N[*:1]; AEEA = NCCOCCOCC(=O)O; Aib = CC(C)(N)C(=O)O

Target: T1, human CRF2α receptor (Homo sapiens, UniProt Q13324)
T1 construct: expressed in transfected cells; host or cells: TeloHEAC
T1 sequence (Q13324 1-411): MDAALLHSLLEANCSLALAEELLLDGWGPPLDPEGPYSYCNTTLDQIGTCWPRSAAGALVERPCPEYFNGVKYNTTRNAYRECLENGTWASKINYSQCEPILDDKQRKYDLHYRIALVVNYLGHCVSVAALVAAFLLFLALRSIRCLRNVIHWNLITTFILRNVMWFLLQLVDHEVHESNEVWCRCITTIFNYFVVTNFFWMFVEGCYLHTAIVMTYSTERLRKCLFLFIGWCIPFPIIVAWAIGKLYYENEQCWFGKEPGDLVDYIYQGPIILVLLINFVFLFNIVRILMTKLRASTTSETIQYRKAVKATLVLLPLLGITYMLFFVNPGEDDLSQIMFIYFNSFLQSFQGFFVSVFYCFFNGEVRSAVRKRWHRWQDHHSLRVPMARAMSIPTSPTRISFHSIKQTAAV
Assay: cAMP agonism at human CRF2 α receptor in TeloHEAC cells (Example 7)
Format: cell-based
Details: cAMP HTRF, TeloHEAC cells stably expressing human CRF2 α
Summary of the method: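 Percent activation was referenced to 1000 nM UCN2 (100%), and EC50 values taken as concentrations giving half of maximal response. The read-out was a homogeneous time-resolved fluorescence cAMP kit, fluorescence ratio 665/620 nm. Thawed cells (2000/well) saw compound for 30 min at RT in buffer with 2 mM IBMX and 0%/0.1% HSA.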

[1] = 0% HSA, read-out: EC50 [nM], 0% HSA
[2] = 0.1% HSA, read-out: EC50 [nM], 0.1% HSA

EC50 [1] [nM] | EC50 [2] [nM] | SMILES
10.6 | – | CC[C@H](C)[C@H](N)C(=O)N[C@H](C(=O)N[C@@H](CC(C)C)C(=O)N[C@@H](CO)C(=O)N[C@@H](CC(C)C)C(=O)N[C@@H](CC(=O)O)C(=O)N[C@H](C(=O)N1CCC[C@H]1C(=O)N[C@H](C(=O)N[C@@H](CCCCN)C(=O)N[C@@H](CC(C)C)C(=O)N[C@@H](CCCCNC(=O)COCCOCCNC(=O)COCCOCCNC(=O)CC[C@H](NC(=O)CCCCCCCCCCCCCCCCC(=O)O)C(=O)O)C(=O)N[C@@H](CCC(N)=O)C(=O)N[C@H](C(=O)N[C@@H](CC(C)C)C(=O)N[C@@H](CC(C)C)C(=O)N[C@@H](CCC(=O)O)C(=O)N[C@@H](CCC(N)=O)C(=O)N[C@@H](CCC(=O)O)C(=O)N[C@@H](CCCNC(=N)N)C(=O)N[C@@H](CCC(N)=O)C(=O)N[C@@H](CCCCN)C(=O)N[C@@H](CCCCN)C(=O)N[C@@H](CCC(N)=O)C(=O)N[C@@H](CCCNC(=N)N)C(=O)N[C@@H](CCC(=O)O)C(=O)N[C@@H](CCC(N)=O)C(=O)N[C@@H](C)C(=O)N[C@@H](CCC(=O)O)C(=O)N[C@H](C(=O)N[C@@H](CC(N)=O)C(=O)NC(C)(C)C(=O)N[C@@H](CCC(N)=O)C(=O)N[C@H](C(=O)N[C@@H](CC(C)C)C(=O)N[C@@H](C)C(=O)N[C@@H](CCC(N)=O)C(=O)N[C@H](C(N)=O)C(C)C)[C@@H](C)CC)[C@@H](C)O)[C@@H](C)CC)[C@@H](C)O)C(C)C)C(C)C [compound 78] (H-IVLSLDVPTKLK([AEEA-AEEA-γGlu-C18 diacid])QILLEQERQKKQREQAETN[Aib]QILAQV-NH2)
10.1 | – | CC[C@H](C)[C@H](N)C(=O)N[C@H](C(=O)N[C@@H](CC(C)C)C(=O)N[C@@H](CO)C(=O)N[C@@H](CC(C)C)C(=O)N[C@@H](CC(=O)O)C(=O)N[C@H](C(=O)N1CCC[C@H]1C(=O)N[C@H](C(=O)N[C@@H](CCCCN)C(=O)N[C@@H](CC(C)C)C(=O)N[C@@H](CCCCNC(=O)COCCOCCNC(=O)COCCOCCNC(=O)CC[C@H](NC(=O)CCCCCCCCCCCCCCCCC(=O)O)C(=O)O)C(=O)N[C@@H](CCC(N)=O)C(=O)N[C@H](C(=O)N[C@@H](CC(C)C)C(=O)N[C@@H](CC(C)C)C(=O)N[C@@H](CCCCN)C(=O)N[C@@H](CCC(N)=O)C(=O)N[C@@H](CCC(=O)O)C(=O)N[C@@H](CCCNC(=N)N)C(=O)N[C@@H](CCC(N)=O)C(=O)N[C@@H](CCCCN)C(=O)N[C@@H](CCCCN)C(=O)NC(C)(C)C(=O)N[C@@H](CCCNC(=N)N)C(=O)N[C@@H](CCC(=O)O)C(=O)N[C@@H](CCC(N)=O)C(=O)N[C@@H](C)C(=O)N[C@@H](CCC(=O)O)C(=O)N[C@H](C(=O)N[C@@H](CC(N)=O)C(=O)N[C@H](C(=O)N[C@@H](CCCNC(=N)N)C(=O)N[C@H](C(=O)N[C@@H](CC(C)C)C(=O)N[C@@H](CCC(=O)O)C(=O)N[C@@H](CCCNC(=N)N)C(=O)N[C@H](C(N)=O)C(C)C)[C@@H](C)CC)C(C)C)[C@@H](C)O)[C@@H](C)CC)[C@@H](C)O)C(C)C)C(C)C [compound 82] (H-IVLSLDVPTKLK([AEEA-AEEA-γGlu-C18 diacid])QILLKQERQKK[Aib]REQAETNVRILERV-NH2)
1.85 | 61.7 | CC[C@H](C)[C@H](N)C(=O)N[C@H](C(=O)N[C@@H](CC(C)C)C(=O)N[C@@H](CO)C(=O)N[C@@H](CC(C)C)C(=O)N[C@@H](CC(=O)O)C(=O)N[C@H](C(=O)N1CCC[C@H]1C(=O)N[C@H](C(=O)N[C@@H](CCCCN)C(=O)N[C@@H](CC(C)C)C(=O)N[C@@H](CCCCNC(=O)COCCOCCNC(=O)COCCOCCNC(=O)CC[C@H](NC(=O)CCCCCCCCCCCCCCCCC(=O)O)C(=O)O)C(=O)N[C@@H](CCC(N)=O)C(=O)N[C@@H](CCCCN)C(=O)N[C@@H](CC(C)C)C(=O)N[C@@H](CC(C)C)C(=O)N[C@@H](CCC(=O)O)C(=O)N[C@@H](CCC(N)=O)C(=O)N[C@@H](CCC(=O)O)C(=O)N[C@@H](CCCCN)C(=O)N[C@@H](CCC(N)=O)C(=O)N[C@@H](CCCCN)C(=O)N[C@@H](CCCCN)C(=O)N[C@@H](CCC(N)=O)C(=O)N[C@@H](CCCNC(=N)N)C(=O)N[C@@H](CCC(=O)O)C(=O)N[C@@H](CCC(N)=O)C(=O)N[C@@H](C)C(=O)N[C@@H](CCC(=O)O)C(=O)N[C@H](C(=O)N[C@@H](CC(N)=O)C(=O)N[C@@H](CCCCN)C(=O)N[C@@H](CCC(N)=O)C(=O)N[C@H](C(=O)N[C@@H](CC(C)C)C(=O)N[C@@H](C)C(=O)N[C@@H](CCC(N)=O)C(=O)N[C@H](C(N)=O)C(C)C)[C@@H](C)CC)[C@@H](C)O)[C@@H](C)CC)C(C)C)C(C)C [compound 84] (H-IVLSLDVPIKLK([AEEA-AEEA-γGlu-C18 diacid])QKLLEQEKQKKQREQAETNKQILAQV-NH2; N-terminus assumed)
3.91 | 92.6 | CC[C@H](C)[C@H](N)C(=O)N[C@H](C(=O)N[C@@H](CC(C)C)C(=O)N[C@@H](CO)C(=O)N[C@@H](CC(C)C)C(=O)N[C@@H](CC(=O)O)C(=O)N[C@H](C(=O)N1CCC[C@H]1C(=O)N[C@H](C(=O)N[C@@H](CCCCN)C(=O)N[C@@H](CC(C)C)C(=O)N[C@@H](CCCCNC(=O)COCCOCCNC(=O)COCCOCCNC(=O)CC[C@H](NC(=O)CCCCCCCCCCCCCCCCC(=O)O)C(=O)O)C(=O)N[C@@H](CCC(N)=O)C(=O)N[C@H](C(=O)N[C@@H](CC(C)C)C(=O)N[C@@H](CC(C)C)C(=O)N[C@@H](CCCCN)C(=O)N[C@@H](CCC(N)=O)C(=O)N[C@@H](CCC(=O)O)C(=O)N[C@@H](CCCNC(=N)N)C(=O)N[C@@H](CCC(N)=O)C(=O)N[C@@H](CCCCN)C(=O)N[C@@H](CCCCN)C(=O)N[C@@H](CCC(N)=O)C(=O)N[C@@H](CCCNC(=N)N)C(=O)N[C@@H](CCC(=O)O)C(=O)N[C@@H](CCCCN)C(=O)N[C@@H](C)C(=O)N[C@@H](CCCCN)C(=O)N[C@H](C(=O)N[C@@H](CC(N)=O)C(=O)N[C@H](C(=O)N[C@@H](CCC(N)=O)C(=O)N[C@H](C(=O)N[C@@H](CC(C)C)C(=O)N[C@@H](C)C(=O)N[C@@H](CCC(N)=O)C(=O)N[C@H](C(N)=O)C(C)C)[C@@H](C)CC)C(C)C)[C@@H](C)O)[C@@H](C)CC)[C@@H](C)CC)C(C)C)C(C)C [compound 90] (H-IVLSLDVPIKLK([AEEA-AEEA-γGlu-C18 diacid])QILLKQERQKKQREKAKTNVQILAQV-NH2; N-terminus assumed)
14.3 | – | CC[C@H](C)[C@H](N)C(=O)N[C@H](C(=O)N[C@@H](CC(C)C)C(=O)N[C@@H](CO)C(=O)N[C@@H](CC(C)C)C(=O)N[C@@H](CC(=O)O)C(=O)N[C@H](C(=O)N1CCC[C@H]1C(=O)N[C@H](C(=O)N[C@@H](CCCCN)C(=O)N[C@@H](CC(C)C)C(=O)N[C@@H](CCCCNC(=O)COCCOCCNC(=O)COCCOCCNC(=O)CC[C@H](NC(=O)CCCCCCCCCCCCCCCCC(=O)O)C(=O)O)C(=O)N[C@@H](CCC(N)=O)C(=O)N[C@@H](CCCCN)C(=O)N[C@@H](CC(C)C)C(=O)N[C@@H](CC(C)C)C(=O)N[C@@H](CCCCN)C(=O)N[C@@H](CCC(N)=O)C(=O)N[C@@H](CCC(=O)O)C(=O)N[C@@H](CCCNC(=N)N)C(=O)N[C@@H](CCC(N)=O)C(=O)N[C@@H](CCCCN)C(=O)N[C@@H](CCCCN)C(=O)N[C@@H](CCC(N)=O)C(=O)N[C@@H](CCCNC(=N)N)C(=O)N[C@@H](CCC(=O)O)C(=O)N[C@@H](CCCCN)C(=O)N[C@@H](C)C(=O)N[C@@H](CCCCN)C(=O)N[C@H](C(=O)N[C@@H](CC(N)=O)C(=O)NC(C)(C)C(=O)N[C@@H](CCC(N)=O)C(=O)N[C@H](C(=O)N[C@@H](CC(C)C)C(=O)N[C@@H](C)C(=O)N[C@@H](CCC(N)=O)C(=O)N[C@H](C(N)=O)C(C)C)[C@@H](C)CC)[C@@H](C)O)[C@@H](C)CC)C(C)C)C(C)C [compound 91] (H-IVLSLDVPIKLK([AEEA-AEEA-γGlu-C18 diacid])QKLLKQERQKKQREKAKTN[Aib]QILAQV-NH2)
9.17 | – | CC[C@H](C)[C@H](N)C(=O)N[C@H](C(=O)N[C@@H](CC(C)C)C(=O)N[C@@H](CO)C(=O)N[C@@H](CC(C)C)C(=O)N[C@@H](CC(=O)O)C(=O)N[C@H](C(=O)N1CCC[C@H]1C(=O)N[C@H](C(=O)N[C@@H](CCCCN)C(=O)N[C@@H](CC(C)C)C(=O)N[C@@H](CCCCNC(=O)COCCOCCNC(=O)COCCOCCNC(=O)CC[C@H](NC(=O)CCCCCCCCCCCCCCCCC(=O)O)C(=O)O)C(=O)N[C@@H](CCC(N)=O)C(=O)N[C@@H](CCCCN)C(=O)N[C@@H](CC(C)C)C(=O)N[C@@H](CC(C)C)C(=O)N[C@@H](CCC(=O)O)C(=O)N[C@@H](CCC(N)=O)C(=O)N[C@@H](CCC(=O)O)C(=O)N[C@@H](CCCNC(=N)N)C(=O)N[C@@H](CCC(N)=O)C(=O)N[C@@H](CCCCN)C(=O)N[C@@H](CCCCN)C(=O)N[C@@H](CCC(N)=O)C(=O)N[C@@H](CCCNC(=N)N)C(=O)N[C@@H](CCC(=O)O)C(=O)N[C@@H](CCC(N)=O)C(=O)N[C@@H](C)C(=O)N[C@@H](CCC(=O)O)C(=O)N[C@H](C(=O)N[C@@H](CC(N)=O)C(=O)NC(C)(C)C(=O)N[C@@H](CCC(N)=O)C(=O)N[C@H](C(=O)N[C@@H](CC(C)C)C(=O)N[C@@H](C)C(=O)N[C@@H](CCC(N)=O)C(=O)N[C@H](C(N)=O)C(C)C)[C@@H](C)CC)[C@@H](C)O)[C@@H](C)CC)C(C)C)C(C)C [compound 92] (H-IVLSLDVPIKLK([AEEA-AEEA-γGlu-C18 diacid])QKLLEQERQKKQREQAETN[Aib]QILAQV-NH2; N-terminus assumed)
